The text below walks through data of patent US7070767B2, “Fossorial rodent control compositions and methods” (priority 1998, dated 2006).

The test concerns rodents. Kind of test: effectiveness of respiratory irritants in the foam in hastening the death of rodents. It counts as in vivo. The settings on record: rodents that inhaled the foam/irritant combination. As for the experimental part:
Furthermore, it is available in commercial quantities in a finely ground form which disperses quickly and evenly into the concentrated foaming agent and remains suspended as the foaming agent is diluted and aerated. Alternative respiratory irritants may share all of or many of these characteristics and include ground horseradish and powdered elemental sulphur.
In the preferred embodiment, a concentrated composition is made by mixing the foaming agent in liquid concentrate form with the mustard powder, preferably in an approximate 3:1 ratio by weight, with the goal of achieving a 1% (w:v) foaming agent concentration and approximately 0.3% to 0.5% (w:v) mustard concentration when the concentrate is diluted to a use level. The proprietary concentrated foaming agents have specific gravities of approximately 1.029 kg per liter and it is generally recommended by the respective manufacturers that it be used in 0.1% to 1% concentration.

SMILES strings stand for the structures.

With `[S]` [powdered elemental sulphur, elemental sulphur], the “effectiveness as respiratory irritant in the foam” value is “effective but less so than the ground mustard”.
